Assays:
[1] = Elimination rate constant in CD1 mouse small intestine assessed as (12aR)-12-(Diphenylmethyl)-7-hydroxy-3,4,12,12a-tetrahydro-1H-[1,4]oxazino[3,4-c]pyrido[2,1-f ][1,2,4]triazine-6,8-dione level at 15 mg/kg, po administered as single dose measured up to 24 hrs by LC-MS/MS analysis; assay type: ADME, organism-based; conditions: in vivo
[2] = Tmax in CD1 mouse kidney assessed as (12aR)-12-(Diphenylmethyl)-7-hydroxy-3,4,12,12a-tetrahydro-1H-[1,4]oxazino[3,4-c]pyrido[2,1-f ][1,2,4]triazine-6,8-dione level at 15 mg/kg, po administered as single dose measured up to 24 hrs by LC-MS/MS analysis; assay type: ADME, organism-based; conditions: in vivo
[3] = Cytotoxicity against human MRC5 cells assessed as reduction in cell viability by ATP bioluminescence assay; assay type: cell-based
[4] = Elimination rate constant in CD1 mouse lung assessed as (12aR)-12-(Diphenylmethyl)-7-hydroxy-3,4,12,12a-tetrahydro-1H-[1,4]oxazino[3,4-c]pyrido[2,1-f ][1,2,4]triazine-6,8-dione level at 15 mg/kg, po administered as single dose measured up to 24 hrs by LC-MS/MS analysis; assay type: ADME, organism-based; conditions: in vivo
[5] = Acute toxicity in CD1 mouse assessed as effect on food consumption at 2000 mg/kg, po measured for 2 weeks; assay type: organism-based; conditions: in vivo, 336 h
[6] = Half life in CD1 mouse liver assessed as (12aR)-12-(Diphenylmethyl)-7-hydroxy-3,4,12,12a-tetrahydro-1H-[1,4]oxazino[3,4-c]pyrido[2,1-f ][1,2,4]triazine-6,8-dione level at 15 mg/kg, po administered as single dose measured up to 24 hrs by LC-MS/MS analysis; assay type: ADME, organism-based; conditions: in vivo
[7] = Half life in CD1 mouse lung assessed as (12aR)-12-(Diphenylmethyl)-7-hydroxy-3,4,12,12a-tetrahydro-1H-[1,4]oxazino[3,4-c]pyrido[2,1-f ][1,2,4]triazine-6,8-dione level at 15 mg/kg, po administered as single dose measured up to 24 hrs by LC-MS/MS analysis; assay type: ADME, organism-based; conditions: in vivo
[8] = Cmax in CD1 mouse blood assessed as (12aR)-12-(Diphenylmethyl)-7-hydroxy-3,4,12,12a-tetrahydro-1H-[1,4]oxazino[3,4-c]pyrido[2,1-f ][1,2,4]triazine-6,8-dione level at 15 mg/kg, po administered as single dose measured up to 24 hrs by LC-MS/MS analysis; assay type: ADME, organism-based; set-up: dose 15 mg/kg, route oral; conditions: in vivo
[9] = MRTlast in CD1 mouse brain assessed as (12aR)-12-(Diphenylmethyl)-7-hydroxy-3,4,12,12a-tetrahydro-1H-[1,4]oxazino[3,4-c]pyrido[2,1-f ][1,2,4]triazine-6,8-dione level at 15 mg/kg, po administered as single dose measured up to 24 hrs by LC-MS/MS analysis; assay type: ADME, organism-based; conditions: in vivo
[10] = Stability in mouse plasma assessed as parent compound remaining at 1 uM measured after 4 hrs by LC-MS/MS analysis; assay type: ADME, cell-free; conditions: read-out: Stability
[11] = AUClast in CD1 mouse plasma assessed as (12aR)-12-(Diphenylmethyl)-7-hydroxy-3,4,12,12a-tetrahydro-1H-[1,4]oxazino[3,4-c]pyrido[2,1-f ][1,2,4]triazine-6,8-dione level at 15 mg/kg, po administered as single dose measured up to 24 hrs by LC-MS/MS analysis; assay type: ADME, organism-based; set-up: dose 15 mg/kg, time < 24 hr, route oral; conditions: in vivo
[12] = Ratio of AUClast in CD1 mouse heart to plasma assessed as (12aR)-12-(Diphenylmethyl)-7-hydroxy-3,4,12,12a-tetrahydro-1H-[1,4]oxazino[3,4-c]pyrido[2,1-f ][1,2,4]triazine-6,8-dione level at 15 mg/kg, po administered as single dose measured up to 24 hrs by LC-MS/MS analysis; assay type: ADME, organism-based; conditions: other tissue
[13] = AUClast in CD1 mouse heart assessed as (12aR)-12-(Diphenylmethyl)-7-hydroxy-3,4,12,12a-tetrahydro-1H-[1,4]oxazino[3,4-c]pyrido[2,1-f ][1,2,4]triazine-6,8-dione level at 15 mg/kg, po administered as single dose measured up to 24 hrs by LC-MS/MS analysis; assay type: ADME, organism-based; conditions: in vivo
[14] = MRTlast in CD1 mouse liver assessed as (12aR)-12-(Diphenylmethyl)-7-hydroxy-3,4,12,12a-tetrahydro-1H-[1,4]oxazino[3,4-c]pyrido[2,1-f ][1,2,4]triazine-6,8-dione level at 15 mg/kg, po administered as single dose measured up to 24 hrs by LC-MS/MS analysis; assay type: ADME, organism-based; conditions: in vivo
[15] = Half life in CD1 mouse plasma assessed as baloxavir acid level at 15 mg/kg, po administered as single dose measured up to 24 hrs by LC-MS/MS analysis; assay type: ADME, organism-based; conditions: in vivo
[16] = AUCinfinity in CD1 mouse heart assessed as baloxavir acid level at 15 mg/kg, po administered as single dose measured up to 24 hrs by LC-MS/MS analysis; assay type: ADME, organism-based; set-up: dose 15 mg/kg, time infinity, route oral; conditions: in vivo
[17] = Half life in CD1 mouse small intestine assessed as baloxavir acid level at 15 mg/kg, po administered as single dose measured up to 24 hrs by LC-MS/MS analysis; assay type: ADME, organism-based; conditions: in vivo
[18] = AUClast in CD1 mouse muscle assessed as baloxavir acid level at 15 mg/kg, po administered as single dose measured up to 24 hrs by LC-MS/MS analysis; assay type: ADME, organism-based, Muscle tissue; conditions: in vivo
[19] = Ratio of AUClast in CD1 mouse lung to plasma assessed as baloxavir acid level at 15 mg/kg, po administered as single dose measured up to 24 hrs by LC-MS/MS analysis; assay type: ADME, organism-based; conditions: other tissue
[20] = Cmax in CD1 mouse plasma assessed as baloxavir acid level at 15 mg/kg, po administered as single dose by LC-MS/MS analysis; assay type: ADME, organism-based; set-up: dose 15 mg/kg, route oral; conditions: in vivo
[21] = Elimination rate constant in CD1 mouse liver assessed as baloxavir acid level at 15 mg/kg, po administered as single dose measured up to 24 hrs by LC-MS/MS analysis; assay type: ADME, organism-based; conditions: in vivo
[22] = AUClast in CD1 mouse lung assessed as baloxavir acid level at 15 mg/kg, po administered as single dose measured up to 24 hrs by LC-MS/MS analysis; assay type: ADME, organism-based; conditions: in vivo
[23] = MRTlast in CD1 mouse kidney assessed as baloxavir acid level at 15 mg/kg, po administered as single dose measured up to 24 hrs by LC-MS/MS analysis; assay type: ADME, organism-based; conditions: in vivo
[24] = Ratio of AUClast in CD1 mouse brain to plasma assessed as baloxavir acid level at 15 mg/kg, po administered as single dose measured up to 24 hrs by LC-MS/MS analysis; assay type: ADME, organism-based
[25] = AUCinfinity in CD1 mouse brain assessed as baloxavir acid level at 15 mg/kg, po administered as single dose measured up to 24 hrs by LC-MS/MS analysis; assay type: ADME, organism-based; set-up: dose 15 mg/kg, time infinity, route oral; conditions: in vivo
[26] = Tmax in CD1 mouse brain assessed as baloxavir acid level at 15 mg/kg, po administered as single dose measured up to 24 hrs by LC-MS/MS analysis; assay type: ADME, organism-based; conditions: in vivo
[27] = MRTlast in CD1 mouse liver assessed as baloxavir acid level at 15 mg/kg, po administered as single dose measured up to 24 hrs by LC-MS/MS analysis; assay type: ADME, organism-based; conditions: in vivo
[28] = Tmax in CD1 mouse lung assessed as baloxavir acid level at 15 mg/kg, po administered as single dose measured up to 24 hrs by LC-MS/MS analysis; assay type: ADME, organism-based; conditions: in vivo

For `COC(=O)OCOc1c2n(ccc1=O)N(C(c1ccccc1)c1ccccc1)[C@@H]1COCCN1C2=O`, which Kel [1] is on record?
Its Kel is 0.54 h⁻¹.

And the Tmax [2]?
Its Tmax is 0.5 h.

What about the CC50 [3] of the same compound?
The CC50 was > 100 µM.

And the Kel [4]?
The Kel was 0.44 h⁻¹.

What about the Activity [5] of the same compound?
Its Activity is “Non-Toxic”.

And the t1/2 [6]?
Its t1/2 is 2.34 h.

What about the t1/2 [7] of the same compound?
Its t1/2 is 1.57 h.

And the Cmax [8]?
Its Cmax is 951 ng/g.

What about the MRTlast [9] of the same compound?
The MRTlast was 3.33 h.

What about the remaining at 4 h, 1 µM [10] of the same compound?
Its remaining at 4 h, 1 µM is 0%.

What about the AUClast [11] of the same compound?
Its AUClast is 3287 ng·h/mL.

What about the “Ratio AUC” value [12] of the same compound?
Its value is 3.38.

What about the AUClast [13] of the same compound?
The AUClast was 11111 ng·h/g.

What about the MRTlast [14] of the same compound?
The MRTlast was 2.31 h.

Which t1/2 [15] does the source give for `COC(=O)OCOc1c2n(ccc1=O)N([C@@H]1c3ccccc3SCc3c1ccc(F)c3F)[C@@H]1COCCN1C2=O` [BALOXAVIR MARBOXIL] here?
The t1/2 was 3.8 h.

And the AUC [16]?
Its AUC is 9025 ng·h/g.

And the t1/2 [17]?
Its t1/2 is 3.13 h.

And the AUClast [18]?
Its AUClast is 4716 ng·h/g.

What about the “Ratio AUC” value [19] of the same compound?
The value was 21.1.

What about the Cmax [20] of the same compound?
The Cmax was 141 ng/mL.

What about the Kel [21] of the same compound?
The Kel was 0.27 h⁻¹.

What about the AUClast [22] of the same compound?
The AUClast was 8959 ng·h/g.

And the MRTlast [23]?
Its MRTlast is 4.27 h.

What about the “Ratio AUC” value [24] of the same compound?
Its value is 0.7.

What about the AUC [25] of the same compound?
The AUC was 411 ng·h/g.

What about the Tmax [26] of the same compound?
Its Tmax is 2 h.

And the MRTlast [27]?
Its MRTlast is 2.92 h.

And the Tmax [28]?
Its Tmax is 2 h.
